Values quoted from earlier work, collected in US20170100348A1, “Treatment Regime for Chronic Sinusitis” (priority 2015, published 2017).

Assays:
[1] = system: Pseudomonas aerunginosa; details: background statement, FIG. 1
[2] = system: fungi
[3] = system: Pseudomonas aeruginosa; details: bacteria and phenolic compound incubated together on a plate
[4] = system: streptococcus mutans
[5] = system: microbial organisms; details: background statement

| Compound | concentration with activity against Pseudomonas aerunginosa [1] | fungicidal concentration [2] | biofilm formation compared to the control [3] | preventing biofilm formation [4] | bacteriocidal concentration [5] | bacteriostatic concentration [5] |
| --- | --- | --- | --- | --- | --- | --- |
| Oc1ccccc1 [Phenol] | 0.5-1.0% | greater than 1.3% | significant reduction in formation of biofilm | effective | 0.04-1.0% | greater than 0.02% |
| O=C(O[C@@H]1Cc2c(O)cc(O)cc2O[C@@H]1c1cc(O)c(O)c(O)c1)c1cc(O)c(O)c(O)c1 [epigallocatechin gallate] | – | – | significant reduction in formation of biofilm | – | – | – |
| O=C(OC[C@H]1O[C@@H](OC(=O)c2cc(O)c(O)c(OC(=O)c3cc(O)c(O)c(O)c3)c2)[C@H](OC(=O)c2cc(O)c(O)c(OC(=O)c3cc(O)c(O)c(O)c3)c2)[C@@H](OC(=O)c2cc(O)c(O)c(OC(=O)c3cc(O)c(O)c(O)c3)c2)[C@@H]1OC(=O)c1cc(O)c(O)c(OC(=O)c2cc(O)c(O)c(O)c2)c1)c1cc(O)c(O)c(OC(=O)c2cc(O)c(O)c(O)c2)c1 [tannic acid] | – | – | significant reduction in formation of biofilm | – | – | – |
| Catechin | – | – | significant reduction in formation of biofilm | – | – | – |
